Where a name gives a salt, the structure may show the parent alone.
Experiments:
[1] = target: [^3 H]-LTB4 binding to receptors on human neutrophils (Homo sapiens, UniProt Q15722); assay: biochemical; conditions: [^3 H]-LTB4 2.65 nM (20 μl), 4° C., 10 minutes
Experimental: The effectiveness of the compounds of the present invention to inhibit binding of [^3 H]-LTB4 to human neutrophils was measured by using an adaptation of a radioligand binding assay developed by Goldman, D. W. and Goetzl, E. J.: Specific binding of leukotriene B4 to receptors on human polymornuclear leukocytes. J. Immunol. 129: 1600-1604(1982). Heparinized venous blood was drawn from normal human volunteers and neutrophils isolated by standard techniques of Ficoll-Hypaque centrifugation, dextran 70 sedimentation and hypotonic lysis. […] The binding assay was carried out in silanized 12×75 mm glass tubes by adding in the following order: 10 μl DMSO containing different amounts of test compound,20 μl of 2.65 nM [^3 H]-LTB4 and 500 μl of the cells suspended in Hanks' balanced salt solution containing 0.1% ovalbumin (2×10^7 cells/ml). Tubes were incubated at 4° C. for 10 minutes and the reaction terminated by isolating the cells with a Brandel MB-48R harvester. Radioactivity bound to the cells was measured by scintillation spectrometry. Nonspecific binding was determined by measuring the amount of label bound when a greater than 2000-fold excess of nonradioactive ligand was added. Appropriate corrections for nonspecific binding were made when analyzing the data.

[2] = target: [^3 H]-LTB4 binding, guinea pig lung membranes (Cavia porcellus, UniProt H0VYV8); assay: [^3 H]-LTB4 Radioligand Binding Assay in Guinea Pig Lung Membranes; conditions: read-out: Binding Guinea Pig Lung pKi (converted)
[^3 H]-LTB4 binding, guinea pig lung membranes, sequence (H0VYV8 1-348): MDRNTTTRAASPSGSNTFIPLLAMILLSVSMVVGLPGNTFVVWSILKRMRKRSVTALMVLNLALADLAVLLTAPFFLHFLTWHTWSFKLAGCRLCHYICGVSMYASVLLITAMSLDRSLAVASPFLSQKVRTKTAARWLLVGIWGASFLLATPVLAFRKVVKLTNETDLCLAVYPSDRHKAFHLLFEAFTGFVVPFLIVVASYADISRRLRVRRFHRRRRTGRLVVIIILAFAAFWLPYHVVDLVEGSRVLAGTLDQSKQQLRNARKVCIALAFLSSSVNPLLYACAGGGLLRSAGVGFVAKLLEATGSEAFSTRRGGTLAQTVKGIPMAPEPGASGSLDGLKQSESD

[^3 H]-LTB4 binding to receptors on human neutrophils, sequence (Q15722 whole entry): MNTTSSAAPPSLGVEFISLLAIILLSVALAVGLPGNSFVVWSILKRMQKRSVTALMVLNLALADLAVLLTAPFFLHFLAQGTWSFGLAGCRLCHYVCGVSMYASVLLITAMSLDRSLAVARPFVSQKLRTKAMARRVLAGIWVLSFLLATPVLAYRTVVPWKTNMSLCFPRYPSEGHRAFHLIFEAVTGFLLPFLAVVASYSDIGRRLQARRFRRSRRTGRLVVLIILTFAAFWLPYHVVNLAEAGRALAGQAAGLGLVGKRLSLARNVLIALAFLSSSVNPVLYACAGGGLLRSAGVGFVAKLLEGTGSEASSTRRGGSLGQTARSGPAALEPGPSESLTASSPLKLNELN

Row | IC50 [1] | Ki [2] | Compound
1 | 2.9 nM | 1.51 nM | CCCc1c(OCCCOc2cc(O)c(OC)cc2CC)ccc2c1OC(C(=O)O)CC2 (stereo not shown) [Example 9, 3,4-Dihydro-8-propyl-7-[3-(2-ethyl-5-hydroxy-4-methoxy-phenoxy)propoxy]-2H-1-benzopyran-2-carboxylic acid]
2 | 4.2 nM | 1.29 nM | CCCc1c(OCCCOc2cc(O)c(OCC)cc2CC)ccc2c1OC(C(=O)O)CC2 (stereo not shown) [Example 10, 3,4-Dihydro-8-propyl-7-[3-(2-ethyl-5-hydroxy-4-ethoxy-phenoxy)propoxy]-2H-1-benzopyran-2-carboxylic acid]
3 | 885 nM | 219 nM | CCc1cc(Sc2ccccc2)c(O)cc1OCCCCCC(C)(C)c1nn[nH]n1 [disodium salt]
4 |  | 21.4 nM | CCCCCOc1cc(CC)c(OCCCCCC(C)(C)c2nn[nH]n2)cc1O [sodium salt]
5 |  | 12.3 nM | CCOc1cc(CC)c(OCCCCCC(C)(C)c2nn[nH]n2)cc1O [sodium salt]
6 |  | 40.7 nM | CCc1cc(OC(C)C)c(O)cc1OCCCCCC(C)(C)c1nn[nH]n1 [sodium salt]
7 |  | 22.9 nM | CCc1cc(OC)c(O)cc1OCCCCCC(C)(C)c1nn[nH]n1 [sodium salt]
8 |  | 77.6 nM | CCc1cc(OC2CCCC2)c(O)cc1OCCCCCC(C)(C)c1nn[nH]n1 [sodium salt]
9 |  | 74.1 nM | CCc1cc(OCCC(C)C)c(O)cc1OCCCCCC(C)(C)c1nn[nH]n1 [sodium salt]
10 |  | 110 nM | CCc1cc(OCc2ccc(F)cc2)c(O)cc1OCCCCCC(C)(C)c1nn[nH]n1 [sodium salt]

Reference: patent US5352690A, “1,2,4-trioxygenated benzene derivatives useful as leukotriene antagonists” (Eli Lilly and Company, priority 1992, dated 1994)
